Results: patent US20120129769A1, “ORALLY ADMINISTERABLE PHARMACEUTICAL PREPARATION CONTAINING INSULIN” (priority 2009, published 2012)

Assays:
[1] = Plasma insulin after oral (feeding probe) insulin with or without ε-amino-caproic acid in starved rats (Example 1); type: in vivo, Male Wistar rats; details: n=4
Experimental: (§1) Male Wistar rats (Charles-River Laboratories, Budapest, Hungary) were used for the experiments. Before the experiment the animals were starved for 16 hours. The experiments started between 8 and 9 h in the morning. 2×6 groups were formed in a random manner, with 4 animals by group. The animals were pretreated through a feeding probe according to the followings: group 1: with 1 g/kg of ε-amino-caproic acid; group 2: with 0.1 U/kg of insulin; group 3: with 0.1 U/kg of insulin and 1 g/kg of ε-amino-caproic acid; group 4: with 1.0 U/kg of insulin; group 5: with 1.0 U/kg of insulin and 1 g/kg of ε-amino-caproic acid; and group 6: with a solvent.

[2] = Plasma insulin immunoreactivity (radioimmunoassay) after intraduodenal insulin-acepramin mixture with standard casein (Example 2); details: mean±S.D., n=8
Experimental: Healthy male Wistar rats (230-250 g) were given an ε-amino-caproic acid—human recombinant insulin mixture with standard casein intraduodenally. The endpoint of the measurement was the blood sugar measured with the glucose oxidase method, and the plasma insulin immunoreactivity measured with radioimmunoassay 15 and 60 minutes after the administration of the insulin-acepramin formulation (aqueous suspension).
(§2) Data: mean±S.D. with n=8 by group. Statistics: t-test with Bonferroni correction, after ANOVA.

[3] = Blood sugar after oral (feeding probe) insulin with or without ε-amino-caproic acid in starved rats (Example 1); type: in vivo, Male Wistar rats; details: n=4
Experimental: as §1

[4] = Blood sugar (glucose oxidase method) after intraduodenal insulin-acepramin mixture with standard casein (Example 2); type: in vivo, male Wistar rats; details: mean±S.D., n=8
Excerpt: as §2

α-chymotrypsin = α-chymotrypsin (Bos taurus, UniProt P00766); assay: In vitro stability of insulin in the presence of a protein degrading enzyme (reverse-phase HPLC); type: in vitro ADME; details: after 120 minutes; insulin 100 μM, α-chymotrypsin 1.5 μg/10 μl; FIG. 1
Experimental: FIG. 1: Insulin (100 μM; native) stability in the presence of an equivalent quantity of insulin/ε-amino-caproic acid (acepramin, Sigma, MO) in a solution containing α-chymotrypsin (1.5 μg/10 μl).
In vitro stability means the biodegradation of a primitive formulation of the insulin-acepramin mixture in the presence of a protein degrading enzyme, as compared to native insulin (results of reverse-phase HPLC tests).

[5] = 15-minute values, insulin 0.1 IU/kg (combination: + 1 g/kg ε-amino-caproic acid)
[6] = 15-minute values, insulin 1.0 IU/kg (combination: + 1 g/kg ε-amino-caproic acid)
[7] = 60-minute values, insulin 0.1 IU/kg (combination: + 1 g/kg ε-amino-caproic acid)
[8] = 60-minute values, insulin 1.0 IU/kg (combination: + 1 g/kg ε-amino-caproic acid)

Which Plasma insulin [1, 5] does the source give for “insulin: biotechnologically produced human recombinant insulin, given alone (native, unformulated)” here?
The Plasma insulin was 10.75 ± 2.21 μU/ml.

And the Plasma insulin [1, 6]?
The Plasma insulin was 38.25 ± 6.95 μU/ml.

And the Plasma insulin [1, 7]?
Its Plasma insulin is 10.8 ± 1.68 μU/ml.

What about the Plasma insulin [1, 8] of the same molecule?
Its Plasma insulin is 23.87 ± 4.05 μU/ml.

What about the Plasma insulin ([2]; 15th minute, insulin 0.1 IU/kg (combination: + 100 mg/kg Acepramin)) of the same molecule?
Its Plasma insulin is 14.4 ± 1.51 μU/ml.

And the Plasma insulin ([2]; 15th minute, insulin 1.0 IU/kg (combination: + 100 mg/kg ε-amino-caproic acid))?
Its Plasma insulin is 27.5 ± 3.95 μU/ml.

What about the Plasma insulin ([2]; 60th minute, insulin 0.1 IU/kg (combination: + 100 mg/kg ε-amino-caproic acid)) of the same molecule?
The Plasma insulin was 17.3 ± 2.94 μU/ml.

What about the Plasma insulin ([2]; 60th minute, insulin 1.0 IU/kg (combination: + 100 mg/kg ε-amino-caproic acid)) of the same molecule?
Its Plasma insulin is 17.1 ± 2.06 μU/ml.

And the Blood sugar [3, 5]?
The Blood sugar was 5.96 ± 0.21 mmol/L.

What about the Blood sugar [3, 6] of the same molecule?
The Blood sugar was 5.77 ± 0.22 mmol/L.

And the Blood sugar [3, 7]?
Its Blood sugar is 4.97 ± 0.40 mmol/L.

And the Blood sugar [3, 8]?
The Blood sugar was 4.67 ± 0.41 mmol/L.

What about the Blood sugar ([4]; 15th minute, insulin 0.1 IU/kg (combination: + 100 mg/kg Acepramin), standard casein) of the same molecule?
Its Blood sugar is 7.9 ± 0.92 mmol/L.

What about the Blood sugar ([4]; 15th minute, insulin 1.0 IU/kg (combination: + 100 mg/kg ε-amino-caproic acid), standard casein) of the same molecule?
Its Blood sugar is 7.7 ± 2.31 mmol/L.

And the Blood sugar ([4]; 60th minute, insulin 0.1 IU/kg (combination: + 100 mg/kg ε-amino-caproic acid), standard casein)?
The Blood sugar was 7.9 ± 0.83 mmol/L.

And the Blood sugar ([4]; 60th minute, insulin 1.0 IU/kg (combination: + 100 mg/kg ε-amino-caproic acid), standard casein)?
Its Blood sugar is 6.9 ± 0.62 mmol/L.

What about the insulin degraded (α-chymotrypsin) of the same molecule?
The insulin degraded was “more than 80%”.

Which results are given for `NCCCCCC(=O)O` [ε-amino-caproic acid, reference compound]?
Blood sugar ([3]; 15-minute values, 1 g/kg ε-amino-caproic acid alone): 5.43 ± 0.55 mmol/L; Blood sugar ([3]; 60-minute values, 1 g/kg ε-amino-caproic acid alone): 5.37 ± 0.15 mmol/L; Blood sugar ([4]; 15th minute, 100 mg/kg ε-amino-caproic acid alone): 6.9 ± 1.41 mmol/L; Blood sugar ([4]; 60th minute, 100 mg/kg ε-amino-caproic acid alone): 7.3 ± 0.95 mmol/L
